The subject of one series is galK 1 site. The series is described as follows: red/white colony screen of editing efficiency at the galK 1 site (CREATE recombineering). The class given is cell-based, E. coli MG1655. The settings on record: for Editing Efficiency 1 mM Theo: induced for 3 hours with 1 mM theophylline; for Editing Efficiency no Theo: no theophylline, 3 hours recovery; for gene editing activity and ligand dependence (in words): with and without aptamer ligand. On the procedure:
Candidates from this enriched library were analyzed to inform an improved library design. After three selection/counterselection steps, cells were plated on M63 selection medium^20 and 150 colonies were picked. Each isolated candidate was then transformed into unedited E. coli to screen for theophylline-responsive constructs using a red/white colony assay to quantify the percentage of edited bacteria. Colonies with an unedited galK site appear red whereas edited colonies appear white (FIG. 5). The percentage of white colonies is considered the editing efficiency. Gene editing was induced as previously described with or without adding theophylline and the editing efficiencies were compared.
The protocol established by Garst et al was mainly followed. LB containing kanamycin and chloramphenicol was inoculated with MGλ9 cells and grown overnight at 30° C. The stationary culture was diluted 100 fold in LB, containing chloramphenicol, kanamycin and 0.2% arabinose and grown to an OD600=0.4-0.6 in 25 mL LB. The culture was heat-shocked in a shaking waterbath at 42° C. for 15 minutes to induce expression of the lambda-red proteins from pSIM5. Then, the culture was washed in two volumes of ice-cold deionized water, resuspended in 500 μl deionized water and 50 μl of the cell suspension was electroporated with 200 ng of a CREATE plasmid that encodes gRNA and homology template. The transformants were recovered in 4 mL of LB, containing 0.2% arabinose and optionally 1 mM theophylline or 1 μM anhydrotetracycline (ATC), and shaken at 37° C. for 3 hours before plating on MacConkey Agar. To estimate the number of cfu, aliquots were plated on LB agar 1 hour after transformation.
In order to assess the frequency of gene editing, a red/white screen was used to visualize the introduction of a stop codon into the galK gene by CREATE. The original CREATE protocol was used for inducing gene editing and after 3 hours of recovery (with or without the agRNA ligand) a series of dilutions of the cultures were plated on MacConkey Agar plates containing 1% galactose. Bacterial colonies with a mutated galK* site appear white on the plates, whereas non-edited colonies appear red. The editing efficiency could be calculated by dividing the number of edited colonies over the total number of colonies. By comparing the editing efficiency in presence versus absence of the ligand, a dynamic range of the in vivo activity could be determined.
When screening the enriched libraries for switchable constructs, the transformants were recovered in 4 mL of LB broth, a dilution series was plated for every construct and the experiment was only carried out once due to the large volume of colonies screened (˜250 in total). When the constructs A9 and GU19 were characterized in detail, triplica of the experiment were carried out.

The test system of a further series is galK1 site. The experiment in a line: co-transformation of targeting gRNA plasmid with non-targeting gRNA plasmid (simulated library).
[1] abbreviates: 9:1 targeting:non-targeting mixture.

Marks after values point to notes of the source that are not given here.

Results on 32 molecules are retold here after US12416008B2, “Compositions and methods of use for small-molecule regulation of CRISPR-Cas9 activity using RNA aptamers” (priority 2019, dated 2025).

“AU11: agRNA cassette AATAGGCCACTTAT, SEQ ID NO: 25 (expressed or natural sequence)”: in the series with galK 1 site, the “Editing Efficiency 1 mM Theo” value was 25% and the “Editing Efficiency no Theo” value was determined as 0%.

As to “A8: agRNA cassette CGGGGGACAATAGG, SEQ ID NO: 12 (expressed or natural sequence)”, in the series with galK 1 site, the “Editing Efficiency 1 mM Theo” value was 82% and the “Editing Efficiency no Theo” value was determined as 2%.

For the molecule “C2A2: agRNA cassette TAGTGGCTACCATG, SEQ ID NO: 14 (expressed or natural sequence)”, in the series with galK 1 site, the “Editing Efficiency 1 mM Theo” value was 84% and the “Editing Efficiency no Theo” value was determined as 5%.

For the molecule “GC13: agRNA cassette GGAAGGCCTTATAC, SEQ ID NO: 64 (expressed or natural sequence)”, in the series with galK 1 site, the “Editing Efficiency 1 mM Theo” value is listed as 64% and the “Editing Efficiency no Theo” value was 0%.

Consider “A10: agRNA cassette GATGGGCCTCCACC, SEQ ID NO: 9 (expressed or natural sequence)”, for which, in the series with galK 1 site, the “Editing Efficiency 1 mM Theo” value is given as 14% and the “Editing Efficiency no Theo” value is reported as 0%.

Take “GC16: agRNA cassette GATAGGCCAACACC, SEQ ID NO: 66 (expressed or natural sequence)”: in the series on galK 1 site, the “Editing Efficiency 1 mM Theo” value is 65% and the “Editing Efficiency no Theo” value was 1%.

With “GC5: agRNA cassette GTTGGGCCGCGGAC, SEQ ID NO: 56 (expressed or natural sequence)”, in the series on galK 1 site, the “Editing Efficiency 1 mM Theo” value was determined as 0% and the “Editing Efficiency no Theo” value worked out at 0%.

Consider “GU13: agRNA cassette GGCCGGCCAAGCAT, SEQ ID NO: 45 (expressed or natural sequence)”, for which, in the series with galK 1 site, the “Editing Efficiency 1 mM Theo” value amounted to 6% and the “Editing Efficiency no Theo” value is 0%.

For the molecule “GU4: agRNA cassette GATTGGCCATACAT, SEQ ID NO: 37 (expressed or natural sequence)”, in the series on galK 1 site, the “Editing Efficiency 1 mM Theo” value worked out at 0% and the “Editing Efficiency no Theo” value turned out to be 0%.

For the molecule “GU6: agRNA cassette GGACGGCCAAGCAT, SEQ ID NO: 39 (expressed or natural sequence)”, in the series on galK 1 site, the “Editing Efficiency 1 mM Theo” value is reported as 1% and the “Editing Efficiency no Theo” value was determined as 0%.

Take “AU4: agRNA cassette AACAGGCCTTAATT, SEQ ID NO: 18 (expressed or natural sequence)”: in the series with galK 1 site, the “Editing Efficiency 1 mM Theo” value is listed as 0% and the “Editing Efficiency no Theo” value came out at 0%.

For the molecule “AU10: agRNA cassette ATAGGGCCATCCAT, SEQ ID NO: 24 (expressed or natural sequence)”, in the series with galK 1 site, the “Editing Efficiency 1 mM Theo” value was determined as 13% and the “Editing Efficiency no Theo” value is 0%.

With “GU5: agRNA cassette GGTTGGCCTAATAT, SEQ ID NO: 38 (expressed or natural sequence)”, in the series with galK 1 site, the “Editing Efficiency 1 mM Theo” value amounted to 2% and the “Editing Efficiency no Theo” value is 0%.

As to “GC9: agRNA cassette GCAGGGCCTCTAAC, SEQ ID NO: 60 (expressed or natural sequence)”, in the series on galK 1 site, the “Editing Efficiency 1 mM Theo” value is reported as 0% and the “Editing Efficiency no Theo” value is given as 0%.

In the case of “GC3: agRNA cassette GTCCGGCCCCACAC, SEQ ID NO: 54 (expressed or natural sequence)”, in the series with galK 1 site, the “Editing Efficiency 1 mM Theo” value was 12% and the “Editing Efficiency no Theo” value was determined as 0%.

In the case of “GC11: agRNA cassette GCGTGGCCCTTCCC, SEQ ID NO: 62 (chemistry not given here)”, in the series with galK 1 site, the “Editing Efficiency 1 mM Theo” value stood at 3% and the “Editing Efficiency no Theo” value is given as 0%.

Take “GC7: agRNA cassette GGGGGGCCGAATAC, SEQ ID NO: 58 (expressed or natural sequence)”: in the series on galK 1 site, the “Editing Efficiency 1 mM Theo” value stood at 71% and the “Editing Efficiency no Theo” value amounted to 1%.

In the case of “GU12: agRNA cassette GCCGGGCCTTTTTT, SEQ ID NO: 44 (expressed or natural sequence)”, in the series on galK 1 site, the “Editing Efficiency 1 mM Theo” value worked out at 7% and the “Editing Efficiency no Theo” value amounted to 0%.

Turning to “sgRNA: wild-type single guide RNA; cassette AGAGCTAGCAAGTT, SEQ ID NO: 1 (chemistry not given here)”, in the series with galK 1 site, the “Editing Efficiency 1 mM Theo” value stood at 89%**. The “Editing Efficiency no Theo” value in the series with galK 1 site was determined as 85%**. Moreover, in the series with galK1 site (setting [1]), the “plated bacteria carrying the non-targeting plasmid” value was 84.8%. Besides, the “plated bacteria expected to carry the targeting CREATE plasmid” value in the series on galK1 site (setting [1]) is 15.2%. Also, in the series with galK1 site (16 unedited colonies picked, 20 ng non-targeting + 180 ng targeting plasmid, 1 mM theophylline), the “# of unedited colonies carrying non-targeting gRNA plasmid” value was 16/16. Moreover, the “enrichment of the non-targeting plasmids” value is given as 8.6±0.1 fold in the series with galK1 site (listed as wild type gRNA) and approximately 8.5 fold in the series with galK1 site (listed as wt sgRNA). For the same molecule, the “percentage of edited cells” value is recorded as 14% in the series on galK1 site (plasmid mixture 90% targeting galK1, 10% non-targeting (eGFP) gRNA, listed as wild type gRNA); 13.5% in the series with galK1 site (plasmid mixture 90% targeting galK1, 10% non-targeting (eGFP) gRNA, listed as wt sgRNA); 89% with galK1 site (transformed exclusively with the targeting plasmid, listed as wild type gRNA); 88.9% in the series on galK1 site (transformed exclusively with the targeting plasmid, listed as wt sgRNA).

With “GC17: agRNA cassette GACCGGCCCCCCGC, SEQ ID NO: 67 (expressed or natural sequence)”, in the series with galK 1 site, the “Editing Efficiency 1 mM Theo” value is recorded as 2% and the “Editing Efficiency no Theo” value was determined as 0%.

Take “A34: agRNA cassette TAGTTTAAACCGTT, SEQ ID NO: 7 (expressed or natural sequence)”: in the series on galK 1 site, the “Editing Efficiency 1 mM Theo” value came to 57% and the “Editing Efficiency no Theo” value turned out to be 12%.

In the case of “GC20: agRNA cassette GCAAGGCCAACACC, SEQ ID NO: 69 (expressed or natural sequence)”, in the series on galK 1 site, the “Editing Efficiency 1 mM Theo” value was found to be 64% and the “Editing Efficiency no Theo” value was determined as 0%.

As to “GC1: agRNA cassette GCTGGGCCCTTCCC, SEQ ID NO: 52 (expressed or natural sequence)”, in the series with galK 1 site, the “Editing Efficiency 1 mM Theo” value was found to be 0% and the “Editing Efficiency no Theo” value came to 0%.

“GC6: agRNA cassette GATTGGCCAGCAAC, SEQ ID NO: 57 (expressed or natural sequence)”: in the series on galK 1 site, the “Editing Efficiency 1 mM Theo” value turned out to be 40% and the “Editing Efficiency no Theo” value stood at 1%.

Turning to “AU2: agRNA cassette ACCAGGCCAAGTAT, SEQ ID NO: 16 (expressed or natural sequence)”, in the series with galK 1 site, the “Editing Efficiency 1 mM Theo” value worked out at 4% and the “Editing Efficiency no Theo” value is recorded as 0%.

Regarding “AU20: agRNA cassette AAATGGCCGGCAAT, SEQ ID NO: 33 (expressed or natural sequence)”, in the series with galK 1 site, the “Editing Efficiency 1 mM Theo” value is recorded as 0% and the “Editing Efficiency no Theo” value is listed as 0%.

Take “GU10: agRNA cassette GTACGGCCCATAAT, SEQ ID NO: 42 (expressed or natural sequence)”: in the series on galK 1 site, the “Editing Efficiency 1 mM Theo” value is reported as 0% and the “Editing Efficiency no Theo” value is listed as 0%.

On to “GC12: agRNA cassette GATAGGCCAGTTAC, SEQ ID NO: 63 (expressed or natural sequence)”, for which, in the series with galK 1 site, the “Editing Efficiency 1 mM Theo” value stood at 36% and the “Editing Efficiency no Theo” value turned out to be 1%.

As for “3-methylxanthine aptamer: theophylline aptamer domain with C22A point mutation at the ligand-binding site; SEQ ID NO: 96 (AUACCAGCUUCGAAAGAAGCCAUUGGCAG; listed as RNA, chemistry not fully specified)”, in the series on galK 1 site, the “gene editing activity and ligand dependence (in words)” value is given as “not activatable by theophylline”.

Turning to “AU18: agRNA cassette AATAGGCCCAGACT, SEQ ID NO: 31 (expressed or natural sequence)”, in the series with galK 1 site, the “Editing Efficiency 1 mM Theo” value was determined as 7% and the “Editing Efficiency no Theo” value is given as 0%.

With “AU16: agRNA cassette AACCGGCCCCGAGT, SEQ ID NO: 29 (expressed or natural sequence)”, in the series on galK 1 site, the “Editing Efficiency 1 mM Theo” value amounted to 6% and the “Editing Efficiency no Theo” value is given as 0%.

B1: agRNAs created by Liu et al.: agRNAs created by Liu et al., designed to regulate gene expression via CRISPRi; SEQ ID NO: 74 (nucleic acid)
guide: ATGATAAAGCTGCTGCAATAGTTTTAGAGCTAGAAATAGCAAGTTAAAATAAGGCTAGTCCGTTATCAACTTGAAAAAGTGGCACCGAGTCGGTGCCAGCAGCTTTATCATATACCACGCGAAAGCGCCTTGGCAGATGATAAAGTTTTTTT
On to B1, for which the “gene editing activity and ligand dependence (in words)” value in the series with galK 1 site is “lead to gene editing with and without the aptamer-ligand”.
